What all share (type): biochemical
Details in all cases: 15 nM tritium labelled cAMP, 1 h at room temperature, SPA beads

The target in test [1] is PDE1A (Homo sapiens, UniProt P54750). The experiment in a line: PDE1 inhibition assay (PDE1A). The method, then: (§1) PDE1A, PDE1B and PDE1C assays were performed as follows: the assays was performed in 60 μL samples containing a fixed amount of the PDE1 enzym1 (sufficient to convert 20-25% of the cyclic nucleotide substrate), a buffer (50 mM HEPES pH 7.6; 10 mM MgCl2; 0.02% Tween20), 0.1 mg/ml BSA, 15 nM tritium labelled cAMP and varying amounts of inhibitors. Reactions were initiated by addition of the cyclic nucleotide substrate, and reactions were allowed to proceed for 1 h at room temperature before being terminated through mixing with 20 μL (0.2 mg) yttrium silicate SPA beads (PerkinElmer). The beads were allowed to settle for 1 h in the dark before the plates were counted in a Wallac 1450 Microbeta counter. The measured signals were converted to activity relative to an uninhibited control (100%) and IC50 values were calculated using XIFit (model 205, IDBS).

Test [2] has as its target PDE1B (Homo sapiens, UniProt Q01064). The experiment in a line: PDE1 inhibition assay (PDE1B). The method, then:
as §1

For test [3], the target named is PDE1C (Homo sapiens, UniProt Q14123). The experiment in a line: PDE1 inhibition assay (PDE1C). As for the experimental part:
as §1

Sequence of PDE1B (Q01064 whole entry): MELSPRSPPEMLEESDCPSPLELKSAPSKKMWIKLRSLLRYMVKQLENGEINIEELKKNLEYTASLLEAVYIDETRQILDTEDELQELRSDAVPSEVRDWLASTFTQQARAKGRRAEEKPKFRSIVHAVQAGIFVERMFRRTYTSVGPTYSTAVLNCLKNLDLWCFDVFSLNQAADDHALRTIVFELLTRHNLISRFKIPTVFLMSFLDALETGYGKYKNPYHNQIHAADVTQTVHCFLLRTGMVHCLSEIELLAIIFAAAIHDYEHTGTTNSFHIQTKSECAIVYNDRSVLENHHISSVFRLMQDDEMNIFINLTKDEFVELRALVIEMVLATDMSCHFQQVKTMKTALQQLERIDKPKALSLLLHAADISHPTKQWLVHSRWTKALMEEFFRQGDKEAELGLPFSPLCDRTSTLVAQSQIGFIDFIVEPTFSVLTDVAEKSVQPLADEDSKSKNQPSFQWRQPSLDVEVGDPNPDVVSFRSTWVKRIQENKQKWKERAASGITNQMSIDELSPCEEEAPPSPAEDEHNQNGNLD
Sequence of PDE1A (P54750 whole entry): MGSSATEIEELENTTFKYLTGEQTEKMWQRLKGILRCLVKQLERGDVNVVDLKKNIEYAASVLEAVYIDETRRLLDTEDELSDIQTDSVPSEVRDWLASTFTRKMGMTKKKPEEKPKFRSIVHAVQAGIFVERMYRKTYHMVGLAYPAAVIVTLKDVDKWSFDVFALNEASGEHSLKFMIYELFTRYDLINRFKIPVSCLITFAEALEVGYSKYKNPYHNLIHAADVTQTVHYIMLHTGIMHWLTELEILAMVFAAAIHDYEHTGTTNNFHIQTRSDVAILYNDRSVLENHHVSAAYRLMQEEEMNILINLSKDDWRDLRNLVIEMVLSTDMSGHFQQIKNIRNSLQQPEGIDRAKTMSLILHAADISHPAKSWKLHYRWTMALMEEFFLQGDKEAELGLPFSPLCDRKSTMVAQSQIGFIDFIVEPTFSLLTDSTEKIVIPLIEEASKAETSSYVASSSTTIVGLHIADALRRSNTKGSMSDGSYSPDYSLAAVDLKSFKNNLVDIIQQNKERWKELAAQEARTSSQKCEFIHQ
Sequence of PDE1C (Q14123 whole entry): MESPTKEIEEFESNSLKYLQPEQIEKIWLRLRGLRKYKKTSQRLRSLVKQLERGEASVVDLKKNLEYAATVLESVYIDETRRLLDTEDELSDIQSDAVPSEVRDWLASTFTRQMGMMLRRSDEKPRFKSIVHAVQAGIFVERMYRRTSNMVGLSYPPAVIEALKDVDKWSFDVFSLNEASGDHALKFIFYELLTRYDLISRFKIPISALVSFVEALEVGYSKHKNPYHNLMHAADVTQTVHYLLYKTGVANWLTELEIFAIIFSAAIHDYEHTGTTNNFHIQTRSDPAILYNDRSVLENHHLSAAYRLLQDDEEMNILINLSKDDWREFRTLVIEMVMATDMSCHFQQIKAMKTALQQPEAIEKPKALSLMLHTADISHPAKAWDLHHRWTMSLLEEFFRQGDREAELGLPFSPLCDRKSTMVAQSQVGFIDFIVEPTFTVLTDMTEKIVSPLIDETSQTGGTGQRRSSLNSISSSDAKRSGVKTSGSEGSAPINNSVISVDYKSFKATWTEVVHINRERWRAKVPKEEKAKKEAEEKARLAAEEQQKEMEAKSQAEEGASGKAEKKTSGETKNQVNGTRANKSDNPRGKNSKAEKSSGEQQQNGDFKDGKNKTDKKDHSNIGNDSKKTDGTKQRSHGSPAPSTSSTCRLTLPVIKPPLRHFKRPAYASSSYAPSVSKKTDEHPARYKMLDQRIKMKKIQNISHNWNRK

One may read the IC50 as the concentration that gives 50% inhibition. Read a low IC50 as higher potency. With `COc1ccc2c(N3CC[C@H]4OCC[C@H]43)ncnc2c1OC` (single isomer, unassigned) [Compound 2], the IC50 was found to be 3200 nM in test [1], 3700 nM in test [2] and 2800 nM in test [3].

For `COc1ccc2c(N3CC[C@@H]4OCC[C@@H]43)ncnc2c1OC` (single isomer, unassigned) [Compound 1], the IC50 in test [1] stood at 160 nM; in test [2], 120 nM; in test [3] it was 120 nM.

The record behind these values is patent publication US9718832B2, “Hexahydrofuropyrroles as PDE1 inhibitors” (H. Lundbeck A/S, priority 2014, dated 2017).
